Measurements reported in article PMC2114115 (The Journal of Cell Biology, 1986).

Experiments:
GH4C1 cells [1] = assay: Release and degradation of cell-bound 125I-EGF; assay type: cell-based, rat; conditions: 37C; for half-time for the release of 125I-tyrosine derived from receptor-bound 125I-EGF: Fig. 6, control cells or 0.1 mM chloroquine, 59 pM, 90 min binding; for subsequent rate of release of 125I-tyrosine from 125I-EGF: chloroquine 0.1 mM, leupeptin 0.1 mg/ml
GH4C1 cells [2] = assay: Acid/salt extraction: cellular distribution of receptor-bound 125I-EGF; assay type: cell-based, rat; conditions: pulse-chase at 37 degrees C after binding 5 h at 4C, 80 pM (Fig. 2)
GH4C1 cells [3] = assay: Release and degradation of cell-bound [125I-Tyr1]SRIF; assay type: cell-based, rat; conditions: for effect on receptor-mediated degradation of [125I-Tyr1]SRIF: Table V conditions, compound in dissociation medium, 60 min at 37C; for rate of dissociation or degradation of prebound [125I-Tyr1]SRIF / half-time of release of radioactivity after [125I-Tyr1]SRIF binding: 37C; for rate of dissociation or degradation of prebound [125I-Tyr1]SRIF: chloroquine 0.1 mM, leupeptin 0.1 mg/ml; for half-time of release of radioactivity after [125I-Tyr1]SRIF binding: Fig. 6, absence or presence of 0.1 mM chloroquine, or 0.1 mg/ml leupeptin, 35 pM, 60 min binding
[4] = test system: SRIF receptors of GH4C1 cells; assay: Specific binding of [125I-Tyr1]SRIF to GH4C1 cells; design: species or system rat; conditions: for cellular accumulation of total or acid-resistant [125I-Tyr1]SRIF: ammonium chloride 20 mM, leupeptin 0.1 mg/ml; for [125I-Tyr1]SRIF bound, Total: Table III, control, leupeptin 0.1 mg/ml or chloroquine 0.1 mM
[5] = molecular target: EGF receptors of GH4C1 cells (Rattus norvegicus, UniProt G3V6K6); assay: Specific binding of 125I-EGF to GH4C1 cells; conditions: for amount of cell-associated 125I-EGF: Fig. 5, prolonged 37C binding incubations, chloroquine 0.1 mM, leupeptin 0.1 mg/ml
GH4C1 cells [6] = conditions: 37C; cited from earlier work
GH4C1 cell membranes = assay: Binding, dissociation and degradation of [125I-Tyr1]SRIF with cell membranes; design: species or system rat; conditions: Table IV; dissociation incubation 4 h at 37C; without or with 100 nM SRIF
GH4C1 cells [7] = conditions: Koch and Schonbrunn, unpublished observations; cited from earlier work
[8] = Table V Exp. 2, control or a2-macroglobulin 50 ug/ml

125I-EGF: radioiodinated epidermal growth factor, chloramine T iodination
half-time for the release of 125I-tyrosine derived from receptor-bound 125I-EGF (GH4C1 cells [1]): 45 min
half-time of transfer from acid-sensitive to acid-resistant compartment (GH4C1 cells [2]): 2 min

O=S(=O)(F)Cc1ccccc1 [PMSF, phenylmethylsulfonyl fluoride]
effect on receptor-mediated degradation of [125I-Tyr1]SRIF (GH4C1 cells [3]): same small effect

CC(C)C[C@H](NP(=O)(O)O[C@@H]1O[C@@H](C)[C@H](O)[C@@H](O)[C@H]1O)C(=O)N[C@@H](Cc1c[nH]c2ccccc12)C(=O)O [Phosphoramidon, phosphoramidon]
effect on receptor-mediated degradation of [125I-Tyr1]SRIF (GH4C1 cells [3]): substantially inhibited

Cc1ccc(S(=O)(=O)NC(CCCCN)C(=O)CCl)cc1 [TLCK, Na-p-tosyl-L-lysine chloromethyl ketone]
effect on receptor-mediated degradation of [125I-Tyr1]SRIF (GH4C1 cells [3]): same small effect

Cc1ccc(S(=O)(=O)N[C@@H](Cc2ccccc2)C(=O)CCl)cc1 [TPCK, L-l-tosylamide 2-phenylethyl chloromethyl ketone]
effect on receptor-mediated degradation of [125I-Tyr1]SRIF (GH4C1 cells [3]): substantially inhibited

Cl.N [ammonium chloride]
[125I-Tyr1]SRIF binding ([4]; 20 mM ammonium chloride, 4 h at 37C, same experiment): unaffected
cellular accumulation of total or acid-resistant [125I-Tyr1]SRIF ([4]; 37C, chloroquine 0.1 mM): none of these inhibitors increased
amount of 125I-EGF bound to cells ([5]; 20 mM ammonium chloride, 4 h at 37C): 210 % of untreated controls

O=C(O)c1cc[c]([Hg][Cl])cc1 [chloromercuribenzoate]
effect on receptor-mediated degradation of [125I-Tyr1]SRIF (GH4C1 cells [3]): substantially inhibited

CCN(CC)CCCC(C)Nc1ccnc2cc(Cl)ccc12 (centres unmarked) [chloroquine]
subsequent rate of release of 125I-tyrosine from 125I-EGF (GH4C1 cells [1]): decreased
half-time for the release of 125I-tyrosine derived from receptor-bound 125I-EGF (GH4C1 cells [1]): 150 min
rate of dissociation or degradation of prebound [125I-Tyr1]SRIF (GH4C1 cells [3]): did not alter
half-time of release of radioactivity after [125I-Tyr1]SRIF binding (GH4C1 cells [3]): 41 min
cellular accumulation of total or acid-resistant [125I-Tyr1]SRIF ([4]; 37C, chloroquine 0.1 mM): none of these inhibitors increased
[125I-Tyr1]SRIF bound, Total ([4]; chase 30 min at 37C): 3,491 cpm
[125I-Tyr1]SRIF bound, Total ([4]; chase 60 min at 37C): 1,725 cpm
decrease in [125I-Tyr1]SRIF binding ([4]; chloroquine 0.1 mM, 37C, all times): 50%
amount of cell-associated 125I-EGF [5]: increased

NC(=O)CI [iodoacetamide]
effect on receptor-mediated degradation of [125I-Tyr1]SRIF (GH4C1 cells [3]): substantially inhibited

CC(=O)N[C@@H](CC(C)C)C(=O)N[C@@H](CC(C)C)C(=O)N[C@H](C=O)CCCNC(=N)N [leupeptin]
subsequent rate of release of 125I-tyrosine from 125I-EGF (GH4C1 cells [1]): decreased
rate of dissociation or degradation of prebound [125I-Tyr1]SRIF (GH4C1 cells [3]): did not alter
half-time of release of radioactivity after [125I-Tyr1]SRIF binding (GH4C1 cells [3]): 48 min
cellular accumulation of total or acid-resistant [125I-Tyr1]SRIF ([4]; 37C, chloroquine 0.1 mM): none of these inhibitors increased
[125I-Tyr1]SRIF bound, Total ([4]; chase 30 min at 37C): 5,537 cpm
[125I-Tyr1]SRIF bound, Total ([4]; chase 60 min at 37C): 3,385 cpm
amount of cell-associated 125I-EGF [5]: increased

COc1ccc(C[C@H](N)C(=O)N[C@H]2[C@@H](O)[C@H](n3cnc4c(N(C)C)ncnc43)O[C@@H]2CO)cc1 [puromycin]
effect on receptor-mediated degradation of [125I-Tyr1]SRIF (GH4C1 cells [3]): same small effect

a2-macroglobulin
125I released (GH4C1 cells [3]; [8]): 2,217 cpm
% Intact [125I-Tyr1]SRIF (GH4C1 cells [3]; [8]): 64%
effect on receptor-mediated degradation of [125I-Tyr1]SRIF (GH4C1 cells [3]): same small effect

bacitracin
effect on receptor-mediated degradation of [125I-Tyr1]SRIF (GH4C1 cells [3]): same small effect

epidermal growth factor (NSYPGCPSSYDGYCLNGGVCMHIESLDSYTCNCVIGYSGDRCQTRDLRWWELR; not fully specified; Epidermal growth factor; UniProt P01132 977-1029, looked up) [EGF]
time for transformation from acid-extractable to acid-resistant state (GH4C1 cells [6]): ≤ 10 min

somatostatin [SRIF]
125I bound (GH4C1 cell membranes): 9,695 cpm
125I dissociated (GH4C1 cell membranes): 10,791 cpm
time to maximal inhibitory effect on hormone secretion (GH4C1 cells [7]): ≤ 5 min
% Intact [125I-Tyr1]SRIF (GH4C1 cells [3]; Table V Exp. 1, SRIF 0.1 mM in dissociation medium): 65%
effect on receptor-mediated degradation of [125I-Tyr1]SRIF (GH4C1 cells [3]): only a slight effect
